According to ChEMBL document CHEMBL3137667, “[Drug-induced liver injury; fourteenth updated edition of the bibliographic database of liver injuries and related drugs]” (Gastroenterol Clin Biol, 2004):

How the values were obtained:
[1] = human
[2] = human; remark: listed apart in the source
[3] = Highest frequency of acute liver toxicity observed during clinical trials, expressed as a percentage. [column '% AIGUE' in source]; details: human
[4] = human; remark: listed apart in the source
[5] = Times to onset, minimal and maximal, observed in the indexed observations. [column 'DELAI' in source]; details: human
[6] = Highest frequency of moderate liver toxicity observed during clinical trials, expressed as a percentage. [column '% BIOL' in source]; details: human
[7] = human; remark: listed apart in the source
[8] = human; remark: listed apart in the source
[9] = human; remark: listed apart in the source
[10] = human, serum, 4383 h
[11] = human; remark: listed apart in the source
[12] = human, serum
[13] = human; remark: listed apart in the source
[14] = human, serum; remark: listed apart in the source
[15] = human; remark: listed apart in the source
[16] = Proposed mechanism(s) of liver damage. [column 'MEC' in source]; details: human
[17] = human; remark: listed apart in the source
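Wherever Hepatotoxicity (association with vascular disease) is given: count of indexed literature references reporting vascular liver injury in humans, e.g. peliosis hepatitis, hepatic veno-occlusive disease or Budd-Chiari syndrome.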
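Wherever Hepatotoxicity (benign tumour) is given: value is a count of indexed literature references citing a benign tumour confirmed by histopathology.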
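Wherever Hepatotoxicity (choleostasis) is given: human cholestatic liver injury, shown by histopathology or by peak ALT or AST elevation over alkaline phosphatase ratio below 2, value counts indexed literature reports.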
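Wherever Hepatotoxicity (chronic liver disease) is given: chronic liver injury confirmed by histopathology or persistently raised serum aminotransferase activity beyond 6 months, value given as the count of indexed literature references.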
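Wherever Hepatotoxicity (cirrhosis) is given: value is a count of indexed literature references reporting cirrhosis confirmed by histopathology.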
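Wherever Hepatotoxicity (cytolytic) is given: human cytolytic liver injury, shown by histopathology or by a ratio above 5 of peak ALT or AST elevation to alkaline phosphatase elevation, value counts indexed references.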
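Wherever Hepatotoxicity (granulomatous hepatitis) is given: value is a count of indexed literature references reporting granulomatous liver disease confirmed by histopathology.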
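Wherever Hepatotoxicity (malignant tumour) is given: malignant tumour confirmed by histopathology, value gives the count of indexed literature references reporting it.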
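Wherever Hepatotoxicity (severe hepatitis) is given: human clinical data: severe hepatitis, meaning potentially life-threatening liver failure or clinically observed cases, the value counts how many indexed literature references report it.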
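Wherever Hepatotoxicity (steatosis) is given: steatosis confirmed by histopathology, value is the count of indexed references.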

Compound | Hepatotoxicity (cirrhosis) [1] | Hepatotoxicity (cytolytic) [2] | Hepatotoxicity (association with vascular disease) [4] | Hepatotoxicity (time to onset) [5] | Hepatotoxicity (choleostasis) [8] | Hepatotoxicity (granulomatous hepatitis) [9] | Hepatotoxicity (chronic liver disease) [10] | Hepatotoxicity (animal toxicity known) [11] | Hepatotoxicity (acute) [12] | Hepatotoxicity (benign tumour) [13] | Hepatotoxicity (moderate) [14] | Hepatotoxicity (malignant tumour) [15] | Hepatotoxicity (mechanism) [16] | Hepatotoxicity (steatosis) [17] | Hepatotoxicity (acute) [3] [%] | Hepatotoxicity (moderate) [6] [%] | Hepatotoxicity (severe hepatitis) [7] | also measured
Cc1c(N(C)C)c(=O)n(-c2ccccc2)n1C [AMINOPYRINE] | 0 | 3 | 0 | 3 months | 1 | 0 | 0 | yes | 6 | 0 | 2 | 0 | Dose-dependant | 1 |  |  |  | Hepatotoxicity (acute) ([3]; Liver): 0%; Hepatotoxicity (moderate) ([6]; Liver): 0%; Hepatotoxicity (severe hepatitis) ([7]; Liver): 2
O=NN(CCCl)C(=O)NCCCl [CARMUSTINE] | 0 | 3 | 10 | 1 week - 6 weeks | 1 | 0 | 0 | yes | 6 | 0 | 8 | 0 | Dose-dependant | 0 | 23 | 26 | 2 | 
COc1cc2c(c(OC)c1OC)-c1ccc(OC)c(=O)cc1[C@@H](NC(C)=O)CC2 [COLCHICINE] | 0 | 3 | 0 | 2 hours - 2 days | 0 | 0 | 0 | yes | 7 | 0 | 2 | 0 | Overdose | 0 | 0 | 28.6 | 0 | 
C[C@@H](CN1CC(=O)NC(=O)C1)N1CC(=O)NC(=O)C1 [DEXRAZOXANE] | 0 | 0 | 0 | 1 week | 0 | 0 | 0 | yes | 0 | 0 | 3 | 0 | Dose-dependant | 0 | 0 | 13 | 0 | 
CCOc1ccc(NC(C)=O)cc1 [PHENACETIN] | 0 | 0 | 0 | 2 days - 2 years | 0 | 2 | 0 | yes | 4 | 0 | 2 | 0 | Dose-dependant | 1 | 0 | 0 | 0 | 
Nc1ccc(/N=N/c2ccccc2)c(N)n1 [PHENAZOPYRIDINE] | 0 | 0 | 0 | 1 week | 2 | 0 | 0 | yes | 2 | 0 | 4 | 0 | Allergic, Toxic Metabolite | 0 | 0 | 0 | 0 | 
CO[C@H](C(=O)[C@@H](O)[C@@H](C)O)[C@@H]1Cc2cc3cc(O[C@H]4C[C@@H](O[C@H]5C[C@@H](O)[C@H](O)[C@@H](C)O5)[C@H](O)[C@@H](C)O4)c(C)c(O)c3c(O)c2C(=O)[C@H]1O[C@H]1C[C@@H](O[C@H]2C[C@@H](O[C@H]3C[C@](C)(O)[C@H](O)[C@@H](C)O3)[C@@H](O)[C@@H](C)O2)[C@H](O)[C@@H](C)O1 [PLICAMYCIN] | 0 | 6 | 0 | 4 days | 0 | 0 | 0 | yes | 6 | 0 | 24 | 0 | Dose-dependant | 1 | 0 | 100 | 3 | 
COc1cc(NC(C)CCCN)c2ncccc2c1 (configuration not stated) [PRIMAQUINE] | 0 | 1 | 0 | 2 days | 0 | 0 | 0 | yes | 1 | 0 | 0 | 0 | Overdose | 0 | 0 | 0 | 0 | 
Cc1ccc(C(=O)c2cc(O)c(O)c([N+](=O)[O-])c2)cc1 [TOLCAPONE] | 0 |  | 0 | 1 month - 6 months |  |  | 0 | yes | 6 | 0 | 6 | 0 |  | 0 |  |  |  | Hepatotoxicity (cytolytic) ([2]; Liver): 6; Hepatotoxicity (acute) ([3]; Liver): 0.7%; Hepatotoxicity (moderate) ([6]; Liver): 14.3%; Hepatotoxicity (severe hepatitis) ([7]; Liver): 5; Hepatotoxicity (choleostasis) ([8]; Liver): 0; Hepatotoxicity (granulomatous hepatitis) ([9]; Liver): 0; Hepatotoxicity (mechanism) ([16]; Liver): Mitochondrial toxicity
COc1ccc2c(C(=S)N(C)CC(=O)O)cccc2c1C(F)(F)F [TOLRESTAT] | 0 | 2 | 0 | 7 weeks - 6 months | 0 | 0 | 0 | yes | 2 | 0 | 7 | 0 |  | 0 | 0.2 | 15.4 | 1 | 
OCC(Br)(Br)Br [TRIBROMOETHANOL] | 0 | 8 | 0 | 1 day - 4 days | 0 | 0 | 0 | yes | 9 | 0 | 1 | 0 |  | 9 | 0.1 | 0 | 15 | 
C[C@H](CCC(=O)O)[C@H]1CC[C@H]2[C@@H]3[C@@H](O)C[C@@H]4C[C@H](O)CC[C@]4(C)[C@H]3CC[C@]12C [URSODIOL] | 0 | 0 | 0 | 3 weeks - 14 weeks | 0 | 0 | 0 | yes | 1 | 0 | 8 | 0 |  | 0 | 0 | 4.2 | 0 | 
ASPARAGINASE | 0 | 1 | 0 |  | 0 | 0 | 0 | yes | 2 | 0 | 27 | 0 | Dose-dependant | 9 | 2.9 | 63 | 2 | 
